Measurements reported in patent publication US11078197B2, “5-membered and bicyclic heterocyclic amides as inhibitors of rock” (BRISTOL-MYERS SQUIBB COMPANY, priority 2017, dated 2021).

What follows are molecules tested against ROCK2 (Homo sapiens (Human), UniProt O75116) (assay: ROCK2 assay (peptide phosphorylation, LABCHIP 3000 Reader)). Conditions: 5 μM ATP, 1.5 μM peptide substrate, dose-response.
Format: biochemical
Experimental: After incubation, the reaction was terminated by the addition of EDTA and the phosphorylated and non-phosphorylated peptides separated using a LABCHIP®3000 Reader (Caliper Life Sciences). […] Compounds were tested in dose-response format, and the inhibition of kinase activity was calculated at each concentration of compound. […] Representative Examples were tested in the ROCK2 assay described above and found having ROCK2 inhibitory activity.

Chain of ROCK2 (O75116 whole entry, species assumed): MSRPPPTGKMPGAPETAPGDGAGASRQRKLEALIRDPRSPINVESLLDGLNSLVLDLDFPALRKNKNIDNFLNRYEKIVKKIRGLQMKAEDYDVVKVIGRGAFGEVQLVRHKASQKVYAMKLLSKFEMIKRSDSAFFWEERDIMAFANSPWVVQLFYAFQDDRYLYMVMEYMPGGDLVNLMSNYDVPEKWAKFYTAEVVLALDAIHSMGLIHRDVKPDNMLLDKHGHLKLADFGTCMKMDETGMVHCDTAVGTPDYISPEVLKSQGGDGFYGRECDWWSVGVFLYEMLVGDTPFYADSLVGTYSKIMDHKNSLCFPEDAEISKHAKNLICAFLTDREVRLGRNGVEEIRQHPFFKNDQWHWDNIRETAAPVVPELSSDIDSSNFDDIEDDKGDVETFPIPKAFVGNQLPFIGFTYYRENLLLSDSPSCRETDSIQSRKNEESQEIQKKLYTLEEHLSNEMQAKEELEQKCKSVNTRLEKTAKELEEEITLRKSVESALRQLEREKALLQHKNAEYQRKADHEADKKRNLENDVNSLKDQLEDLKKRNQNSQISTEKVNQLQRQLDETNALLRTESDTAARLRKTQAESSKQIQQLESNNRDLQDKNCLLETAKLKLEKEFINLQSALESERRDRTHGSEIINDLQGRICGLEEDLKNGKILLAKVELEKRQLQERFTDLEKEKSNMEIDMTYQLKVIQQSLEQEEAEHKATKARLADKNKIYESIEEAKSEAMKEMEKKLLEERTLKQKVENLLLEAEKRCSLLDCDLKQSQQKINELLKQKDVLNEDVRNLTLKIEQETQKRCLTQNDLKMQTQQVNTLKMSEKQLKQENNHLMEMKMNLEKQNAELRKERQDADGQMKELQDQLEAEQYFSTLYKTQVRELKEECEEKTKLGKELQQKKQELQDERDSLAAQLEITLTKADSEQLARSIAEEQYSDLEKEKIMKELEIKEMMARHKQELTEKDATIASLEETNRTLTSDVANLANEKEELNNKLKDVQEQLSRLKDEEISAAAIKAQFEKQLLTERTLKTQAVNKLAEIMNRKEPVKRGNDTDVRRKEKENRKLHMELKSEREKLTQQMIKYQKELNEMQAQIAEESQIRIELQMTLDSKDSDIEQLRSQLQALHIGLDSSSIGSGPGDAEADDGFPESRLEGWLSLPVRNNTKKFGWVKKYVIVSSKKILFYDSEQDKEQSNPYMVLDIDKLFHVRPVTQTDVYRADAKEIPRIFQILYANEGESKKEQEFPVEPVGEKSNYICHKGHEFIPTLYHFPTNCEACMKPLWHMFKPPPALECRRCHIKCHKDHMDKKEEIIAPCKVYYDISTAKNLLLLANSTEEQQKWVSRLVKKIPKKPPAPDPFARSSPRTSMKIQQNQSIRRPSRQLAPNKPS

SMILES | IC50
N#Cc1cccc(C(=O)N[C@H]2C[C@]3(C2)C[C@H](Oc2nc4c(cc2C(N)=O)COCC4)C3)c1 (stereo partly drawn) [Example 85, 2-{[(aR)-6-(3-cyanobenzamido)spiro[3.3]heptan-2-yl]oxy}-5H,7H,8H-pyrano[4,3-b]pyridine-3-carboxamide] | 144 nM
NC(=O)c1cc2sccc2nc1O[C@H]1C[C@]2(C1)C[C@H](N1C(=O)CN(Cc3ccccc3)CC1=O)C2 (stereo partly drawn) [Example 86, 5-{[(aR)-6-(4-benzyl-2,6-dioxopiperazin-1-yl)spiro[3.3]heptan-2-yl]oxy}thieno[3,2-b]pyridine-6-carboxamide] | 85.9 nM
N#CCc1cccc(C(=O)N[C@H]2C[C@]3(C2)C[C@H](Oc2nc4c(cc2C(N)=O)COCC4)C3)c1 (stereo partly drawn) [Example 88, 2-{[(aR)-6-[3-(cyanomethyl)benzamido]spiro[3.3]heptan-2-yl]oxy}-5H,7H,8H-pyrano[4,3-b]pyridine-3-carboxamide] | 35 nM
COc1ccc(C(=O)N[C@H]2C[C@]3(C2)C[C@H](Oc2nc4c(cc2C(N)=O)COCC4)C3)cc1C#N (stereo partly drawn) [Example 90, 2-{[(aR)-6-(3-cyano-4-methoxybenzamido)spiro[3.3]heptan-2-yl]oxy}-5H,7H,8H-pyrano[4,3-b]pyridine-3-carboxamide] | 114 nM
N#Cc1ccc(C(=O)N[C@H]2C[C@]3(C2)C[C@H](Oc2nc4c(cc2C(N)=O)COCC4)C3)cc1F (stereo partly drawn) [Example 93, 2-{[(aR)-6-(4-cyano-3-fluorobenzamido)spiro[3.3]heptan-2-yl]oxy}-5H,7H,8H-pyrano[4,3-b]pyridine-3-carboxamide] | 1460 nM
Cn1ncc2cc(C(N)=O)c(O[C@H]3C[C@@]4(C[C@H](NC(=O)c5cccc(C#N)c5)C4)C3)nc21 (stereo partly drawn) [Example 102, 1-methyl-6-{[(aR)-6-(3-cyanobenzamido)spiro[3.3]heptan-2-yl]oxy}-1H-pyrazolo[3,4-b]pyridine-5-carboxamide] | 8 nM
NC(=O)c1cn(C2CC2)nc1O[C@H]1C[C@]2(C1)C[C@H](N1C(=O)NC(Cc3ccccc3)C1=O)C2 (stereo partly drawn) [Example 104, 1-cyclopropyl-3-{[(aR)-6-(4-benzyl-2,5-dioxoimidazolidin-1-yl)spiro[3.3]heptan-2-yl]oxy}-1H-pyrazole-4-carboxamide] | 2040 nM
CC(C)CC1NC(=O)N([C@H]2C[C@@]3(C[C@H](Oc4nn(C5CC5)cc4C(N)=O)C3)C2)C1=O (stereo partly drawn) [Example 105, 1-cyclopropyl-3-{[(aR)-6-[4-(2-methylpropyl)-2,5-dioxoimidazolidin-1-yl]spiro[3.3]heptan-2-yl]oxy}-1H-pyrazole-4-carboxamide] | 132 nM
NC(=O)c1sc(C2CC2)nc1O[C@H]1C[C@]2(C1)C[C@H](N1C(=O)NC(Cc3cccnc3)C1=O)C2 (stereo partly drawn) [Example 107, 2-cyclopropyl-4-{[(aR)-6-{2,5-dioxo-4-[(pyridin-3-yl)methyl]imidazolidin-1-yl}spiro[3.3]heptan-2-yl]oxy}-1,3-thiazole-5-carboxamide] | 1830 nM
CCC1NC(=O)N([C@H]2C[C@@]3(C[C@H](Oc4nc(C5CC5)sc4C(N)=O)C3)C2)C1=O (stereo partly drawn) [Example 108, 2-cyclopropyl-4-{[(aR)-6-(4-ethyl-2,5-dioxoimidazolidin-1-yl)spiro[3.3]heptan-2-yl]oxy}-1,3-thiazole-5-carboxamide] | 1870 nM
COc1nc(O[C@H]2CC3(C[C@H](NC(=O)c4cnn(-c5ccc(C#N)cc5)c4C)C3)C2)c(C(N)=O)s1 (stereo partly drawn) [Example 112, 4-(((2S,4s,6)-6-(1-(4-cyanophenyl)-5-methyl-1H-pyrazole-4-carboxamido)spiro[3.3]heptan-2-yl)oxy)-2-methoxythiazole-5-carboxamide] | 205 nM
COc1nc(O[C@H]2C[C@@]3(C[C@H](NC(=O)c4cnn5cc(OCC(F)F)ccc45)C3)C2)c(C(N)=O)s1 (some centres unmarked) [Example 115, 2-methoxy-4-{[(4s)-6-[6-(2,2-difluoroethoxy)pyrazolo[1,5-a]pyridine-3-amido]spiro[3.3]heptan-2-yl]oxy}-1,3-thiazole-5-carboxamide] | 31.2 nM
COc1nc(O[C@H]2C[C@@]3(C[C@H](NC(=O)c4cnn5cc(OCC(O)(C(F)(F)F)C(F)(F)F)ccc45)C3)C2)c(C(N)=O)s1 (some centres unmarked) [Example 116, 2-methoxy-4-{[(4s)-6-{6-[3,3,3-trifluoro-2-hydroxy-2-(trifluoromethyl)propoxy]pyrazolo[1,5-a]pyridine-3-amido}spiro[3.3]heptan-2-yl]oxy}-1,3-thiazole-5-carboxamide] | 71.6 nM

The next lines start with the values.

IC50 | SMILES
156 nM | N#Cc1cc(C(=O)N[C@H]2C[C@]3(C2)C[C@H](Oc2nc4c(cc2C(N)=O)COCC4)C3)ccc1F (stereo partly drawn) [Example 87, 2-{[(aR)-6-(3-cyano-4-fluorobenzamido)spiro[3.3]heptan-2-yl]oxy}-5H,7H,8H-pyrano[4,3-b]pyridine-3-carboxamide]
716 nM | N#Cc1ccc(F)c(C(=O)N[C@H]2C[C@]3(C2)C[C@H](Oc2nc4c(cc2C(N)=O)COCC4)C3)c1 (stereo partly drawn) [Example 89, 2-{[(aR)-6-(5-cyano-2-fluorobenzamido)spiro[3.3]heptan-2-yl]oxy}-5H,7H,8H-pyrano[4,3-b]pyridine-3-carboxamide]
330 nM | NC(=O)c1cc2c(nc1O[C@H]1C[C@@]3(C[C@H](NC(=O)c4ccc5[nH]ncc5c4)C3)C1)CCOC2 (stereo partly drawn) [Example 91, N-[(aR)-6-({3-carbamoyl-5H,7H,8H-pyrano[4,3-b]pyridin-2-yl}oxy)spiro[3.3]heptan-2-yl]-1H-indazole-5-carboxamide]
191 nM | N#Cc1cc(C(=O)N[C@H]2C[C@]3(C2)C[C@H](Oc2nc4c(cc2C(N)=O)COCC4)C3)ccc1Br (stereo partly drawn) [Example 92, 2-{[(aR)-6-(4-bromo-3-cyanobenzamido)spiro[3.3]heptan-2-yl]oxy}-5H,7H,8H-pyrano[4,3-b]pyridine-3-carboxamide]
39 nM | Cc1sc2cc(C(N)=O)c(O[C@H]3C[C@@]4(C[C@H](NC(=O)c5cnn6cc(OCC(C)(C)O)ccc56)C4)C3)nc2c1C (stereo partly drawn) [Example 94, 2,3-dimethyl-5-{[(aR)-6-[6-(2-hydroxy-2-methylpropoxy)pyrazolo[1,5-a]pyridine-3-amido]spiro[3.3]heptan-2-yl]oxy}thieno[3,2-b]pyridine-6-carboxamide]
79 nM | Cc1sc2cc(C(N)=O)c(O[C@H]3C[C@@]4(C[C@H](NC(=O)c5cccc(C#N)c5)C4)C3)nc2c1C (stereo partly drawn) [Example 95, 2,3-dimethyl-5-{[(aR)-6-(3-cyanobenzamido)spiro[3.3]heptan-2-yl]oxy}thieno[3,2-b]pyridine-6-carboxamide]
126 nM | Cc1sc2cc(C(N)=O)c(O[C@H]3C[C@@]4(C[C@H](NC(=O)c5cnc6ccc(F)cc6c5)C4)C3)nc2c1C (stereo partly drawn) [Example 96, 6-fluoro-N-[(aR)-6-({6-carbamoyl-2,3-dimethylthieno[3,2-b]pyridin-5-yl}oxy)spiro[3.3]heptan-2-yl]quinoline-3-carboxamide]
12 nM | Cc1csc2cc(C(N)=O)c(O[C@H]3C[C@@]4(C[C@H](NC(=O)c5cnn6cc(OCC(C)(C)O)ccc56)C4)C3)nc12 (stereo partly drawn) [Example 97, 3-methyl-5-{[(aR)-6-[6-(2-hydroxy-2-methylpropoxy)pyrazolo[1,5-a]pyridine-3-amido]spiro[3.3]heptan-2-yl]oxy}thieno[3,2-b]pyridine-6-carboxamide]
25.7 nM | Cc1csc2cc(C(N)=O)c(O[C@H]3C[C@@]4(C[C@H](NC(=O)c5cccc(C#N)c5)C4)C3)nc12 (stereo partly drawn) [Example 98, 3-methyl-5-{[(aR)-6-(3-cyanobenzamido)spiro[3.3]heptan-2-yl]oxy}thieno[3,2-b]pyridine-6-carboxamide]
67.1 nM | Cc1csc2cc(C(N)=O)c(O[C@H]3C[C@@]4(C[C@H](NC(=O)c5cnc6ccc(F)cc6c5)C4)C3)nc12 (stereo partly drawn) [Example 99, 6-fluoro-N-[(aR)-6-({6-carbamoyl-3-methylthieno[3,2-b]pyridin-5-yl}oxy)spiro[3.3]heptan-2-yl]quinoline-3-carboxamide]
36.6 nM | NC(=O)c1cc2c(nc1O[C@H]1C[C@@]3(C[C@H](NC(=O)c4cnc5ccc(F)cc5c4)C3)C1)CCOC2 (stereo partly drawn) [Example 100, 6-fluoro-N-[(aR)-6-({3-carbamoyl-5H,7H,8H-pyrano[4,3-b]pyridin-2-yl}oxy)spiro[3.3]heptan-2-yl]quinoline-3-carboxamide]
6 nM | Cn1ncc2cc(C(N)=O)c(O[C@H]3C[C@@]4(C[C@H](NC(=O)c5cnn6cc(OCC(C)(C)O)ccc56)C4)C3)nc21 (stereo partly drawn) [Example 101, 1-methyl-6-{[(aR)-6-[6-(2-hydroxy-2-methylpropoxy)pyrazolo [1,5-a]pyridine-3-amido]spiro[3.3]heptan-2-yl]oxy}-1H-pyrazolo[3,4-b]pyridine-5-carboxamide]
5 nM | Cn1ncc2cc(C(N)=O)c(O[C@H]3C[C@@]4(C[C@H](NC(=O)c5cnc6ccc(F)cc6c5)C4)C3)nc21 (stereo partly drawn) [Example 103, 6-fluoro-N-[(aR)-6-({5-carbamoyl-1-methyl-1H-pyrazolo[3,4-b]pyridin-6-yl}oxy)spiro[3.3]heptan-2-yl]quinoline-3-carboxamide]
587 nM | CC(C)C1NC(=O)N([C@H]2C[C@@]3(C[C@H](Oc4nc(C5CC5)sc4C(N)=O)C3)C2)C1=O (stereo partly drawn) [Example 106, 2-cyclopropyl-4-{[(aR)-6-[2,5-dioxo-4-(propan-2-yl)imidazolidin-1-yl]spiro[3.3]heptan-2-yl]oxy}-1,3-thiazole-5-carboxamide]
53.1 nM | COc1nc(O[C@H]2C[C@@]3(C[C@H](NC(=O)c4cnn(-c5ccc(Cl)cc5)c4C)C3)C2)c(C(N)=O)s1 (some centres unmarked) [Example 113, 2-methoxy-4-{[(4s)-6-[1-(4-chlorophenyl)-5-methyl-1H-pyrazole-4-amido]spiro[3.3]heptan-2-yl]oxy}-1,3-thiazole-5-carboxamide]
115 nM | COc1nc(O[C@H]2C[C@@]3(C[C@H](NC(=O)c4cnn(-c5ccc(C(F)(F)F)cn5)c4C)C3)C2)c(C(N)=O)s1 (some centres unmarked) [Example 114, 2-methoxy-4-{[(4s)-6-{5-methyl-1-[5-(trifluoromethyl)pyridin-2-yl]-1H-pyrazole-4-amido}spiro[3.3]heptan-2-yl]oxy}-1,3-thiazole-5-carboxamide]
